This is an account of results in publication PMC5271583 (Bioorganic & medicinal chemistry letters, 2016).

Where two headings read alike, the source gives them in different places.

Holding throughout (assay type): cell-based, rodent
Assay [1] addresses CRAC channel (Rattus norvegicus, UniProt Q5M848). Briefly: Inhibition of Ca2+ influx in thapsigargin-activated RBL-2H3 mast cells. The note with it: for inhibition at 100 µM: RBL-2H3, read-out: Inhibition of Ca2+ influx at 100 µM (no IC50).
In assay [2] the test system is NFAT-c1. The note with it: 10 µM and higher concentrations.
Assay [3] deals with RBL-2H3 cells. The experiment in a line: β-hexosaminidase release. The note with it: highest concentration tested.
Assay [4] relates to TNFα. Briefly: TNFα protein secretion by thapsigargin-activated RBL cells, ELISA. The note with it: 4 h, read-out: IC50 (µM) TNFα. (In an ELISA, binding on a coated surface is turned into a signal by an enzyme label.)

CRAC channel, sequence (Q5M848 whole entry): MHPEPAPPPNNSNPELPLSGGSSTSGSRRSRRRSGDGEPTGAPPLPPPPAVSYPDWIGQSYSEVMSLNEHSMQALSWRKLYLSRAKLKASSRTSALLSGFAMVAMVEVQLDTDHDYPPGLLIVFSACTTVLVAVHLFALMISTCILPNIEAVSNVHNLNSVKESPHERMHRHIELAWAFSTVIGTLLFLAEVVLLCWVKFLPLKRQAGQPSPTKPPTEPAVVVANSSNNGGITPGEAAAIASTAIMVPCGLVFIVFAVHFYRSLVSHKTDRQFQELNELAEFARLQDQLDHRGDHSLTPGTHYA

In general, inhibition refers to the percentage by which the read-out fell short of the control. For `O=C(Nc1cnns1)c1nn(Cc2ccc(Cl)cc2Cl)c2ccccc12` [Compound 12h], the inhibition at 100 µM in assay [1] was less than 50%.
Usually IC50 stands for the point on the concentration scale where inhibition reaches its midpoint. With “N-[1-[(2,4-dichlorophenyl)methyl]indazol-3-yl]-3-fluoro-pyridine-4-carboxamide [Compound 12d]”, the concentration for half-maximal inhibition (IC50) came out at 0.67 µM in assay [1] (read-out: IC50 (µM) Ca2+ influx, Table 3, SD <20%) and 0.67 µM in assay [1] (read-out: IC50 (µM), inhibition of Ca2+ influx, indazole derivatives, Table 1, RBL-2H3 cells activated with Tg 1 µM, SD <35%). Also, in assay [2], the “Level of nuclear NFAT (in words)” value is on record as “restore the levels of nuclear NFAT to that of resting MCs”. For the same compound, the “Inhibition of β-hex release (in words)” value in assay [3] was “nearly complete inhibition of β-hex release”.
The compound `Cc1nnsc1C(=O)Nc1nn(Cc2ccc(Cl)cc2Cl)c2ccccc12` [Compound 9e] registered an IC50 in assay [1] greater than 30 µM. In addition, the inhibition at 30 µM in assay [1] (RBL-2H3, read-out: Inhibition of Ca2+ influx at 30 µM) was roughly 50%.
In the case of `O=C(Nc1nn(Cc2ccc(Cl)cc2Cl)c2ccccc12)c1c(F)cccc1F` [Compound 9a], the inhibition at 100 µM in assay [1] is less than 50%.
As to `O=C(Nc1ccc(F)cc1F)c1nn(Cc2ccc(Cl)cc2Cl)c2ccccc12` [Compound 12e], in assay [4], the IC50 came to 0.64 µM.
Compound `O=C(Nc1ccccc1F)c1nn(Cc2ccc(Cl)cc2Cl)c2ccccc12` [Compound 12c] showed an IC50 in assay [1] greater than 30 µM.
Turning to `O=C(Nc1nn(Cc2ccc(Cl)cc2Cl)c2ccccc12)c1ccc(F)cc1F` [Compound 9f], in assay [1], the inhibition at 100 µM was less than 50%.
